Several values for one entry are separate records, joined by “and”; a condition that tells them apart may be missing. Equal values may be shown once. Read-outs that look alike come from different tables or passages of the source. Marks after values point to notes of the source that are not given here.
Assays:
HIV-1SKI = experiment: Single cycle analysis of HIV-1 cDNA, CEM-SS cells; format: cell-based; conditions: 10- to 100-fold over IC50
[1] = system: HIV-1 strains (SKI, RF, DV, IIIB, ADP/141); experiment: microbe, parasite or virus in culture; format: cell-based
[2] = Thermal denaturation of oligomer fold (UV, Tm); format: physicochemical
[3] = target: recombinant HIV-1 integrase (wild-type) (Human immunodeficiency virus type 1 group M subtype B, UniProt P12497); experiment: HIV-1 integrase 3′-processing and strand transfer assays; format: biochemical; parameters: Purified recombinant HIV-1 integrase enzyme (wild-type) was a generous gift from Dr. R. Craigie; purchased gift of Dr. R. Craigie, Laboratory of Molecular Biology, NIDDK (not bought)
Procedure: Integrase enzyme assays. Purified recombinant HIV-1 integrase enzyme (wild-type) was a generous gift from Dr. R. Craigie, Laboratory of Molecular Biology, National Institute of Diabetes and Digestive and Kidney Diseases. The enzyme (0.25 μM) was preincubated in reaction buffer at 20° C. for 30 minutes. All 3′-processing and strand-transfer reactions were performed as described previously by Fresen et al. (Fresen, et al., Proc. Natl. Acad. Sci. USA 90:2399-2403 (1993)) and Mazumder et al. (Mazumder, et al., Proc. Natl. Acad. Sci. USA 91:5771-5775 (1994)). Enzyme reactions were quenched by the addition of Maxam-Gilbert loading dye, and an aliquot was electrophoresed on a denaturing 20% polyacrylamide gel. Gels were then dried and subjected to autoradiography using Kodax XAR-2 film or exposed in a Molecular Dynamics Phospholmager cassette.
Integrase was preincubated at a final concentration of 200 (for HIV-1 and HIV-2) or 600 nM (for FIV and SIV) with inhibitor in reaction buffer (50 mM Nac1, 1 mM HEPES, pH 7.5, 50 μM dithiothreitol, 10% glycerol (wt/vol), 7.5 mM MnCl2 or MgCL2 (when specified), 0.1 mg/mL bovine serum albumin, 20 mM 2-mercaptoethanol, 10% dimethyl sulfoxide, and 25 mM MOPS, pH 7.2) at 30° C. for 30 minutes. When magnesium was used as the divalent metal ion, polyethylene glycol was added at a final concentration of 5% to increase activity as previously described (Engelman & Craigie, 1995). Preincubation for 30 minutes of the enzyme with inhibitor was performed to optimize increases the inhibitory activity in the 3′-processing reaction (Fesen et al., 1994). Then, 30 nM of the 5′-end ^32P-labeled linear oligonucleotide substrate was added, and incubation was continued for an additional 1 hr. The final reaction volume was 16 μL.
Electrophoresis and quantitation. Reactions were quenched by the addition of an equal volume […] of loading dye (98% deionized formamide, 10 mM EDTA, 0.025% xylene cyanol, 0.025% bromophenol blue). An aliquot (5 μL) was electrophoresed on a denaturing 20% polyacrylamide gel (0.09 M Tris-borate pH 8.3, 2 mM EDTA, 20% acrylamide, 8M urea). Gels were dried, exposed in a Molecular Dynamics Phosphorimager cassette, and analyzed using a Molecular Dynamics phosphorimager (Sunnyvale, Calif.). Percent inhibition was calculated using the following equation:
where C, N, and D are the fractions of 21mer substrate converted to 19mer (3′-processing product) or strand transfer products for DNA alone, DNA plus integrase, and integrase plus drug, respectively.
Antiviral assay. The RF laboratory strain of HIV-1 was used to infect established cell lines for one hour at 37° C. prior to washing and resuspension in medium containing increasing concentrations of drug. […] Purified recombinant HIV-1 integrase enzyme (wild-type) was a generous gift from Dr. Craigie, Laboratory of Molecular Biology, NIDDK. All 3′-processing and strand-transfers were performed as described previously by Fresen et al. (Fresen et al. (1993) Proc. Natl. Acad. Sci. VSA 90, 2399-2403) and Mazurnder et al. (Mazumder et al. (1994) Proc. Natl. Acad. Sci. USA 91, 5771-75).

[4] = Oligomer folding by circular dichroism; conditions: for midpoint of K+ induced folding transition (CD, 264 nm): KCl, 25° C., 20 mM Li3PO4
[5] = target: T1, recombinant RT (HIV-1BH10) (Human immunodeficiency virus type 1 group M subtype B, UniProt P03366); experiment: Reverse transcriptase enzyme inhibition assays; format: biochemical; conditions: read-out: IC50 recombinant HIV-1 RT
T1 construct: Purified recombinant RT (HIV-1BH10) was obtained from the University of Alabama; purchased University of Alabama, Center for AIDS research (obtained from)

[6] = system: CD4- and gp120-mediated cell fusion; experiment: cells; format: cell-based; conditions: HL2/3, read-out: IC50 CD4- and gp120-mediated cell fusion
HIV-1RF = experiment: HeLa-CD4-LTR-β-galactosidase cell virus infection assay; format: cell-based
HIV-1IIIB = experiment: Time of drug addition study, MT-4 cells (p24); format: cell-based; conditions: 100-fold IC50, MOI 1, p24 at 29 hour
HIV-1 RT = HIV-1 RT (Human immunodeficiency virus type 1 group M subtype B, UniProt P04585); experiment: In vitro inhibition of HIV-1 RT (kinetic analysis); format: biochemical
HIV-1DV [7] = experiment: HIV-1 p24 production in SUP T1 cells; format: cell-based
HIV-1 strain DV = experiment: HIV-1 induced syncytia formation assay in SUP T1 cells; format: cell-based
HIV-1DV [8] = experiment: Analysis of HIV-1 RNA and DNA in single cycle assays, SUP T1; format: cell-based
[9] = target: HIV-1 integrase (wild-type and deletion mutants) (Human immunodeficiency virus type 1 group M subtype B, UniProt P12497); experiment: UV crosslinking DNA binding experiments; conditions: enzyme preincubated with oligo
Procedure: UV crosslinking experiments. The method used has been described by Engleman et al. Engelman, et al., J. Virol. 68, 5911-5917 (1994). Briefly, integrase (at the indicated concentration) was incubated with substrate in reaction buffer as above for 5 minutes at 30° C. Reactions were then irradiated with a UV transilluminator (254 nm wavelength) from 3 cm above (2.4 mW/cm2) at room temperature for 10 minutes. An equal volume (16 μL) of 2X SDS-PAGE buffer (100 mM Tris, pH 6.8, 4% 2-mercaptoethanol, 4% SDS, 0.2% bromophenol blue, 20% glycerol) was added to each reaction. Twenty μL aliquots were heated at 95° C. for 3 minutes prior to loading on a 12% or 18% SDS-polyacrylamide gel. The gel was run at 120 V for 1.5 hours, dried, and exposed in a Phosphorlmager cassette. […] For the competition experiments (FIG. 29), integrase (200 nM) was preincubated with either the radiolabeled viral DNA substrate (20 nM) or T30177 (20 nM) for 5 minutes at 30° C. prior to the addition of competitor DNA at the indicated concentration.

[10] = HIV-1 IIIB, CEM-SS or MT4, read-out: Antiviral Assay IC50 IIIB
[11] = HIV-1 RF, CEM-SS or MT4, read-out: Antiviral Assay IC50 RF
[12] = HIV-1 SKI, CEM-SS or MT4, read-out: Antiviral Assay IC50 SKI
[13] = read-out: Enzyme IC50 3-′process
[14] = anti-HIV-1 virus production, read-out: Cell Culture IC50
[15] = cell culture, read-out: IC50 HIV-1RF
[16] = Human immunodeficiency virus 1, IIIB, CEM-SS, read-out: Antiviral Assay IC50 IIIB, HIV-1 IIIB, CEM-SS or MT4
[17] = Human immunodeficiency virus 1, IIIB, CEM-SS, read-out: Antiviral Assay IC50 RF, HIV-1 RF, CEM-SS or MT4
[18] = Human immunodeficiency virus 1, IIIB, CEM-SS, read-out: Antiviral Assay IC50 SKI, HIV-1 SKI, CEM-SS or MT4
[19] = 3′-processing, read-out: Anti-Integrase Assay IC50 3′-proc
[20] = strand transfer, read-out: Anti-Integrase Assay IC50 strand tran.

CC(C)OC(=O)c1cc(NC(=S)OC(C)C)ccc1Cl [UC38]
viral cDNA 12 hours post-infection, drug added at time of infection (HIV-1SKI): no detectable viral DNA | IC50 [1, 10]: 90 nM | IC50 [1, 11]: 20 nM | IC50 [1, 12]: 90 nM

5′-gtggtgggtgtggtgggt-3′ (GTGGTGGGTGTGGTGGGT; phosphorothioate termini, further chemistry not given here) [T30676, pPT variant T30177]
Tm ([2]; 1 mM KCl): 33 °C | Tm ([2]; 10 mM KCl): 46 °C | Tm ([2]; 180 mM KCl): 65 °C | IC50 [3, 13]: 134 nM | IC50 ([3]; read-out: IC50 STR · TRA): 134 ± 16 nM | midpoint of K+ induced folding transition (CD, 264 nm) [4]: 0.27 mM | IC50 [1, 14]: 1000 nM | IC50 [1, 15]: 1000 nM

Cc1cn([C@H]2C[C@H](N=[N+]=[N-])[C@@H](COP(=O)(O)OP(=O)(O)OP(=O)(O)O)O2)c(=O)[nH]c1=O [AZT 5′-triphosphate, reference compound]
IC50 ([5]; template gapped duplex DNA, duplicate experiments): 470 nM and 400 nM | IC50 ([5]; template poly(rA)p(dT)12-18, duplicate experiments): 590 nM and 600 nM

5′-gggtgggtgggtgggt-3′ [T30695]
Tm ([2]; 1 mM KCl): 67 °C | Tm ([2]; 10 mM KCl, calculated from linear fit): 87* ° C. | Tm ([2]; 180 mM KCl, calculated from linear fit): 110* ° C. | IC50 [3, 13]: 20 nM | IC50 ([3]; read-out: Enzyme IC50 Stran Trans): 60 nM | IC50 ([3]; read-out: IC50 3′-PROC): 43 ± 17 nM | IC50 ([3]; read-out: IC50 STR · TRA): 24 ± 4 nM | midpoint of K+ induced folding transition (CD, 264 nm) [4]: ~0.02 mM | midpoint of Rb+ induced folding transition (CD) ([4]; RbCl): 0.5 mM | IC50 [1, 14]: 70 nM | IC50 [1, 15]: 70 nM

COc1cc(-c2ccc(/N=N/c3ccc4c(S(=O)(=O)O)cc(S(=O)(=O)O)c(N)c4c3O)c(OC)c2)ccc1/N=N/c1ccc2c(S(=O)(=O)O)cc(S(=O)(=O)O)c(N)c2c1O [CSB, Chicago sky blue]
IC50 [6]: 800 nM | viral cDNA 12 hours post-infection, drug added at time of infection (HIV-1SKI): no detectable viral DNA | IC50 (HIV-1RF; Human immunodeficiency virus 1, HIV-1RF, read-out: IC50 β-galactosidase production, virus infection assay): 260 nM | delay of drug addition post-infection at which inhibitory effect is lost (HIV-1IIIB): one hour post-virus infection | IC50 [1, 16]: 600 nM | IC50 [1, 17]: 1700 nM | IC50 [1, 18]: 1600 nM

5′-gtggtgggtgggtgggt-3′ (GTGGTGGGTGGGTGGGT; phosphodiester, 3'-propanolamine, further chemistry not given here) [I100-15, 17 mer PD, 3′-propanolamine]
Ki (HIV-1 RT): > 5000 nM | IC50 (HIV-1 RT; read-out: ID50 (the source's name)): > 5000 nM | Percent p24 relative to infected untreated control, Day 7 (HIV-1DV [7]; 2.5 uM, drug removed day 4): 0.0% | Percent p24 relative to infected untreated control, Day 11 (HIV-1DV [7]; 2.5 uM, drug removed day 4): 0.0% | Percent p24 relative to infected untreated control, Day 4 (HIV-1DV [7]; 2.5 uM, medium replaced day 4): 0.0% | IC50 (HIV-1DV [7]; SUP T1, HIV-1DV, four days): 80 nM | T.I. (therapeutic index) (HIV-1 strain DV): >200 | IC50 (HIV-1 strain DV; SUP T1, HIV-1DV, four days, read-out: IC50 Syn (syncytium inhibition)): 125 nM | IC50 (HIV-1 strain DV; size variants of I100-15, read-out: IC50 Syn.): 160 nM | viral DNA synthesis (PCR) (HIV-1DV [8]; 36 hr post-infection): minimal | HIV-1 specific transcript (RT-PCR) (HIV-1DV [8]; drug added at zero hours): reduced level of HIV-1 specific transcript

5′-ggttggtgtggttgg-3′ [T30659, reference compound]
inhibition of integrase binding to radiolabeled U5 DNA substrate [9]: only modest inhibition of DNA binding | IC50 [3, 19]: > 500 nM | IC50 [3, 13]: 750 nM | IC50 [3, 20]: > 500 nM | IC50 [1, 10]: > 20000 nM | IC50 [1, 11]: > 20000 nM | IC50 [1, 12]: 2810 nM | IC50 [1, 14]: > 20000 nM

5′-GTGATGGGTGGGTGGGT-3′ (phosphorothioate termini, further chemistry not given here) [T30526, pPT, dA for dG, tetrad-disrupted mutant of T30177]
less potent than T30177 at inhibiting virus-infected cell β-galactosidase production (HIV-1RF): 10-15 fold | IC50 [3, 20]: 123 nM | IC50 [1, 11]: 11700 nM

Nc1ccn([C@H]2CC[C@@H](CO)O2)c(=O)n1 [ddC, 2′,3′-dideoxycytidine]
viral cDNA 12 hours post-infection, drug added at time of infection (HIV-1SKI): no detectable viral DNA | IC50 [3, 19]: > 1000 nM | IC50 [3, 20]: > 1000 nM | IC50 [1, 16]: 78 nM | IC50 [1, 17]: 57 nM | IC50 [1, 18]: 260 nM | IC50 ([1]; Human immunodeficiency virus 1, IIIB, CEM-SS, read-out: IC50 virus production, HIV-1 RF, CEM-SS, MOI 0.01): 57 nM

From patent US6355785B1, “Guanosine-rich oligonucleotide integrase inhibitors” (Aronex Pharmaceuticals, Inc., priority 1993, dated 2002)
